Laboratory results reported in US20260184663A1, “INDENE COMPOUNDS, PHARMACEUTICAL COMPOSITIONS THEREOF, AND THEIR THERAPEUTIC APPLICATIONS” (NucMito Pharmaceuticals co. Ltd., priority 2022, published 2026).
Where two headings read alike, the source gives them in different places.

Legend:
Type in all cases: cell-based
[1] = tested on: MDA-MB-231 (breast cancer); test: Antiproliferative activity (CCK-8 cell viability), MDA-MB-231; conditions: Homo sapiens, 72 h, read-out: Antiproliferative activity in cancerous cells, MDA-MB-231 (inhibition of cell growth); for inhibition at 3.3 µM: Compound concentration: 3.3 μM; for inhibition at 10 µM: Compound concentration: 10 μM; for inhibition at 30 µM: Compound concentration: 30 μM
How it was run: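 MDA-MB-231 breast cancer cells, grown in DMEM with 10% FBS, were plated in 96-well plates at 2,000-5,000 cells/well. Once attached, they were exposed to compound and incubated at 37° C. for 72 h. Viability was then measured with CCK-8 (10 μL per well, 4 h at 37° C.) by absorbance at 450 nm, relative to DMSO vehicle wells.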

HepG2 (liver cancer) = test: Antiproliferative activity (CCK-8 cell viability), HepG2; conditions: Homo sapiens, 72 h, read-out: Antiproliferative activity in cancerous cells, HepG2 (inhibition of cell growth); for inhibition at 3.3 µM: Compound concentration: 3.3 μM; for inhibition at 10 µM: Compound concentration: 10 μM; for inhibition at 30 µM: Compound concentration: 30 μM
How it was run: (§1)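 Cells grown in DMEM (HepG2, SW480), MEM (HeLa) or F-12K (A549), each with 10% FBS, then exposed to compound at 3.3, 10 or 30 μM for 72 h at 37 °C. CCK-8 absorbance at 450 nm; viability expressed as percent of DMSO-treated cells, graded as growth inhibition bands.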

SW480 (colon cancer) = test: Antiproliferative activity (CCK-8 cell viability), SW480; conditions: Homo sapiens, 72 h, read-out: Antiproliferative activity in cancerous cells, SW480 (inhibition of cell growth); for inhibition at 3.3 µM: Compound concentration: 3.3 μM; for inhibition at 10 µM: Compound concentration: 10 μM; for inhibition at 30 µM: Compound concentration: 30 μM
How it was run: as §1

[2] = tested on: B16F10 (malignant melanoma); test: Antiproliferative activity (CCK-8 cell viability), B16F10; conditions: Mus musculus, 72 h, read-out: Antiproliferative activity in cancerous cells, B16F10 (inhibition of cell growth); for inhibition at 3.3 µM: B16-F10, Compound concentration: 3.3 μM; for inhibition at 10 µM: B16-F10, Compound concentration: 10 μM; for inhibition at 30 µM: B16-F10, Compound concentration: 30 μM
How it was run: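 B16F10 melanoma cells grown in DMEM with 10% FBS were plated in 96-well plates at 2,000-5,000 cells/well. After attachment they were exposed to compound in medium for 72 h at 37° C. CCK-8 solution (10 μL) was then added, and after 4 h at 37° C absorbance was read at 450 nm.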

[3] = tested on: A431 (epidermoid carcinoma); test: Antiproliferative activity (CCK-8 cell viability), A431; conditions: Homo sapiens, 72 h; for inhibition at 3.3 µM: A-431, Compound concentration: 3.3 μM; for inhibition at 10 µM: A-431, Compound concentration: 10 μM; for inhibition at 30 µM: A-431, Compound concentration: 30 μM
How it was run: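 A431 epidermoid carcinoma cells grown in DMEM with 10% FBS were plated at 2,000-5,000 cells/well in 96-well plates. After attachment they were exposed to compound at 3.3 μM, 10 μM, or 30 μM for 72 h at 37° C. Viability was then assessed by CCK-8 against DMSO vehicle-treated wells.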

[4] = tested on: A549 (lung adenocarcinoma); test: Antiproliferative activity (CCK-8 cell viability), A549; conditions: Homo sapiens, 72 h, read-out: Antiproliferative activity in cancerous cells, A549 (inhibition of cell growth); for inhibition at 3.3 µM: Compound concentration: 3.3 μM; for inhibition at 10 µM: Compound concentration: 10 μM; for inhibition at 30 µM: Compound concentration: 30 μM
How it was run: as §1

HeLa (cervical cancer) = test: Antiproliferative activity (CCK-8 cell viability), HeLa; conditions: Homo sapiens, 72 h, read-out: Antiproliferative activity in cancerous cells, HELA (inhibition of cell growth); for inhibition at 3.3 µM: Compound concentration: 3.3 μM; for inhibition at 10 µM: Compound concentration: 10 μM; for inhibition at 30 µM: Compound concentration: 30 μM
How it was run: as §1

[5] = read-out: Antiproliferative activity in cancerous cells, A431 (inhibition of cell growth)
[6] = read-out: Antiproliferative activity in cancerous cells, A431

| SMILES | inhibition at 3.3 µM [1] [%] | inhibition at 10 µM [1] [%] | inhibition at 3.3 µM (HepG2 (liver cancer)) [%] | inhibition at 10 µM (HepG2 (liver cancer)) [%] | inhibition at 3.3 µM (SW480 (colon cancer)) [%] | inhibition at 10 µM (SW480 (colon cancer)) [%] | inhibition at 3.3 µM [2] [%] | inhibition at 10 µM [2] [%] | inhibition at 3.3 µM [3, 5] [%] | inhibition at 10 µM [3, 5] [%] | inhibition at 3.3 µM [4] [%] | inhibition at 10 µM [4] [%] | inhibition at 3.3 µM (HeLa (cervical cancer)) [%] | inhibition at 10 µM (HeLa (cervical cancer)) [%] | other results |
| --- | --- | --- | --- | --- | --- | --- | --- | --- | --- | --- | --- | --- | --- | --- | --- |
| CC1=C(CC(=O)O)c2cc(F)ccc2/C1=C\c1ccc([S+]([O-])c2ccc(F)cc2)cc1 (stereo not shown) [C45, (Z)-2-(5-Fluoro-1-(4-((4-fluorophenyl)sulfinyl)benzylidene)-2-methyl-1H-inden-3-yl)acetic acid] | 30 to 50 | ≥ 50 | < 30 | < 30 | < 30 | 30 to 50 | ≥ 50 | ≥ 50 | < 30 | < 30 | < 30 | 30 to 50 | < 30 | ≥ 50 | inhibition at 30 µM [3, 6]: < 30% |
| CC1=C(CC(=O)O)c2cc(F)ccc2/C1=C\c1cccc(Oc2ccc(O)c(Cl)c2)c1 [C103, (Z)-2-(1-(3-(3-Chloro-4-hydroxyphenoxy)benzylidene)-5-fluoro-2-methyl-1H-inden-3-yl)acetic acid] | < 30 | ≥ 50 | < 30 | ≥ 50 | < 30 | ≥ 50 | ≥ 50 | ≥ 50 | 30 to 50 | ≥ 50 | 30 to 50 | ≥ 50 | < 30 | ≥ 50 |  |
| CC1=C(CC(=O)O)c2cc(F)ccc2/C1=C\c1cccc(C(F)(F)c2ccccc2)c1 [C301, (Z)-2-(1-(3-(Difluoro(phenyl)methyl)benzylidene)-5-fluoro-2-methyl-1H-inden-3-yl)acetic acid] | ≥ 50 | ≥ 50 | < 30 | < 30 | < 30 | < 30 | 30 to 50 | ≥ 50 | < 30 | < 30 | < 30 | < 30 | < 30 | ≥ 50 | inhibition at 30 µM [1]: ≥ 50%; inhibition at 30 µM (HepG2 (liver cancer)): ≥ 50%; inhibition at 30 µM (SW480 (colon cancer)): ≥ 50%; inhibition at 30 µM [2]: ≥ 50%; inhibition at 30 µM [3, 5]: ≥ 50%; inhibition at 30 µM [4]: ≥ 50%; inhibition at 30 µM (HeLa (cervical cancer)): ≥ 50% |
| COc1ccc2c(c1)C(CC(=O)O)=C(C)/C2=C/c1ccc(Oc2ccc(F)c(F)c2)cc1 [C75, (Z)-2-(1-(4-(3,4-Difluorophenoxy)benzylidene)-5-methoxy-2-methyl-1H-inden-3-yl)acetic acid] | ≥ 50 | ≥ 50 | < 30 | ≥ 50 | < 30 | 30 to 50 | ≥ 50 | ≥ 50 | ≥ 50 | ≥ 50 | 30 to 50 | ≥ 50 | ≥ 50 | ≥ 50 |  |
| COc1ccc(Oc2cccc(/C=C3/C(C)=C(CC(=O)O)c4cc(Cl)ccc43)c2)cc1 [C92, (Z)-2-(5-Chloro-1-(3-(4-methoxyphenoxy)benzylidene)-2-methyl-1H-inden-3-yl)acetic acid] | < 30 | < 30 | ≥ 50 | ≥ 50 | ≥ 50 | ≥ 50 | < 30 | < 30 | ≥ 50 | ≥ 50 | < 30 | ≥ 50 | ≥ 50 | ≥ 50 |  |
| CC1=C(CC(=O)O)c2cc(F)ccc2/C1=C\c1cccc(Oc2cccc(Cl)c2)c1 [C101, (Z)-2-(1-(3-(3-Chlorophenoxy)benzylidene)-5-fluoro-2-methyl-1H-inden-3-yl)acetic acid] | < 30 | < 30 | < 30 | ≥ 50 | < 30 | 30 to 50 | ≥ 50 | ≥ 50 | 30 to 50 | ≥ 50 | < 30 | < 30 | < 30 | 30 to 50 |  |
| CC1=C(CC(=O)O)c2cc(F)ccc2/C1=C\c1cccc([S+]([O-])c2ccc(F)cc2)c1 (stereo not shown) [C43, (Z)-2-(5-Fluoro-1-(3-((4-fluorophenyl)sulfinyl)benzylidene)-2-methyl-1H-inden-3-yl)acetic acid] | 30 to 50 | ≥ 50 | < 30 | < 30 | < 30 | < 30 | < 30 | < 30 | 30 to 50 | 30 to 50 | < 30 | 30 to 50 | < 30 | 30 to 50 | inhibition at 30 µM [3, 6]: 30 to 50% |
| CC1=C(CC(=O)O)c2cc(F)ccc2/C1=C\c1ccc(C(=O)c2cc3ccccc3s2)cc1 [C303, (Z)-2-(1-(4-(Benzo[b]thiophene-2-carbonyl)benzylidene)-5-fluoro-2-methyl-1H-inden-3-yl)acetic acid] | ≥ 50 | ≥ 50 | 30 to 50 | ≥ 50 | 30 to 50 | ≥ 50 | ≥ 50 | ≥ 50 | < 30 | ≥ 50 | 30 to 50 | ≥ 50 | 30 to 50 | ≥ 50 | inhibition at 30 µM [1]: ≥ 50%; inhibition at 30 µM (HepG2 (liver cancer)): ≥ 50%; inhibition at 30 µM (SW480 (colon cancer)): ≥ 50%; inhibition at 30 µM [2]: ≥ 50%; inhibition at 30 µM [3, 5]: ≥ 50%; inhibition at 30 µM [4]: ≥ 50%; inhibition at 30 µM (HeLa (cervical cancer)): ≥ 50% |
| CC1=C(CC(=O)O)c2cc(C)ccc2/C1=C\c1ccc(CCCc2ccc(Cl)cc2)cc1 [B123, (Z)-2-(1-(4-(3-(4-Chlorophenyl)propyl)benzylidene)-2,5-dimethyl-1H-inden-3-yl)acetic acid] | < 30 | ≥ 50 | 30 to 50 | ≥ 50 | 30 to 50 | ≥ 50 | ≥ 50 | ≥ 50 | ≥ 50 | ≥ 50 | ≥ 50 | ≥ 50 | < 30 | ≥ 50 |  |
